ID50 data for eight substances are collected here from US4126606A, “Physiologically active peptides and a process for preparation thereof” (Zaidan Hojin Biseibutsu Kagaku Kenkyu Kai, priority 1976, dated 1978).

The experiment in a line: ID50 determination of amastatin preparations (inhibitory activity). The format is biochemical.
Consider “hydrochloric acid salt of amastatin A1 [HCl A1]”, for which the ID50 amounted to 0.75 µg/mL.

amastatin A1 registered an ID50 of 0.65 µg/mL.

amastatin A2 registered an ID50 of 0.54 µg/mL.

On to amastatin B2, for which the ID50 is 1.0 µg/mL.

Take amastatin A3: the ID50 worked out at 1.0 µg/mL.

N-acetyl amastatin A2 displayed an ID50 of 450 µg/mL.

In the case of amastatin RB1, the ID50 was determined as 1.50 µg/mL.

With amastatin A2 dimethyl ester, the ID50 is 17 µg/mL.
